Assay results: patent US5053070A, “Pyrimidine derivatives, preparation processes thereof, herbicide containing the same, and herbicidal compositions containing the same along with other active ingredient” (Mitsui Toatsu Chemicals, Incorporated, priority 1988, dated 1991)

Key:
[1] = tested on: soybean; assay: Upland foliar application test (Test 3), crop injury; format: in vivo; conditions: 30 g ai/a, foliar spray at 2-3 leaves, 30th day
Method: (§1) Resin-made 1/10000-are pots were filled with the soil of an upland field. Redroot pigweed, common lambsquarters, foxtail meadow, johnsongrass, barnyardgrass, green foxtail, large crabgrass, soybean, peanut and cotton were separately seeded and were allowed to germinate in a green house. When each plant grew to the stage of 2-3 leaves, an emulsion formulated from a predetermined amount of each test compound in a similar manner to the method described in Formulation Example 11 was diluted with water to a predetermined dilution rate and then sprayed at an application rate equal to 5 l per are onto the foliage of each plant by means of a pressure-operated ULV (ultra low volume) sprayer. Influence to the crops and weeds were observed on the 30th day after the spray of the herbicides. The results are shown in Table 4 in which the degree of damages of each test plant and the degree of injury to each crop are shown in a similar manner to Test 2.

[2] = tested on: peanut; assay: as above; format: in vivo; conditions: 30 g ai/a, foliar spray at 2-3 leaves, 30th day
Method: as §1

[3] = tested on: cotton; assay: as above; format: in vivo; conditions: 30 g ai/a, foliar spray at 2-3 leaves, 30th day
Method: as §1

[4] = tested on: ALS (acetolactate syntase); assay: ALS enzyme assay (Test 1); format: biochemical, barnyardgrass; conditions: 1,000 ppm (0.5 mg/0.5 ml)
Method: (§2) To determine the selectivity in enzyme level between crops and weeds, and ALS enzyme assay was conducted using pea as a representative of broadleaf crops and barnyardgrass as a representative of narrowleaf weeds.
(§3) After seeds of pea and barnyardgrass were allowed to germinate at 25° C. for 8-14 days in a dark place, partially-purified suspensions (Suspensions A) of acetolactate syntase were separately obtained from seedlings in accordance with the method described in the literature, Plant Physiology, 75, 827-831.
(§4) In a test tube, 0.5 mg of one of test compounds was weighed, followed by the addition of 0.15 ml of a 20 mM K2 HPO4 solution and 0.25 ml of a reaction substrate medium which consisted of 40 mM of K2 HPO4, 40 mM of sodium pyruvate, 1 mM of TPP, 1 mM of MgCl2 and 20 μM of FAD so that 0.4 ml of a reaction solution (Solution B) was prepared. Added to 0.4 ml of Solution B was 0.1 ml of suspension A. After the resultant mixture was shaken for 1 hour in a thermostat water bath controlled at 30° C., 50 μl of 6N sulfuric acid were added to terminate the reaction.
(§5) Next, the reaction-terminated liquid mixture was transferred into a thermostat water bath controlled at 60° C. and was heated for 15 minutes. Thereafter, 0.5 ml of a 0.5% creatine solution and 0.5 ml of a 5% alkaline α-naphthol solution were added, and the resultant mixture was maintained at 60° C. for 15 minutes. As a result, the test solution developed a pink-red color. After the above operation, the absorbance of the test solution at 525 nm was measured by a spectrophotometer (Absorbance 1 of Test Compound).
(§6) On the other hand, the absorbance (Absorbance 2 of Blank) of a solution obtained by subjecting a portion of Solution B, said portion being free of the test compound, to the above operation and the absorbance (Absorbance 3 of sulfuric acid terminated) of another solution obtained by subjecting another portion of Solution B, said portion containing 50 μl of 6N sulfuric acid as a test compound, were measured at the same time. Based on the values of the respective measurements, the enzyme assay at 1,000 ppm (0.5 mg/0.5 ml) of each compound was determined. [formula]

[5] = tested on: Sagittaria pygmaea; assay: Treatment of soil under submerged condition, post-emergence (Test 5); format: in vivo; conditions: 30 g ai/a granule, 30 days later
Method: (§7) 1/5000-are Wagner pots were filled with soil. Seeds or tubers of barnyardgrass, Monochoria vaginalis, bulrush, Sagittaria pygmaea, Cyperus serroylnus and Eleocharis kuroguwai were seeded or planted under submerged condition. Two pairs of rice seedlings (2-3 leaf stage), which had been reared in advance, were transplanted to each pot and were allowed to grow in a green house. Each pair consisted of two rice seedlings. When the barnyardgrass grew to two-leaf stage, each pot was treated with a granule which had been prepared by processing a predetermined amount of the test composition in accordance with a similar method to the method described in Formulation Example 9. The state of emergence of weeds and the state of injury of rice were observed 30 days later.
(§8) In the table, the degrees of damages of the test plants and the degrees of injury of the rice are shown in a similar manner to Example 2.

[6] = tested on: barnyardgrass; assay: as above; format: in vivo; conditions: 30 g ai/a granule, post-emergence (barnyardgrass two-leaf stage), 30 days later
Method: as §7, §8

[7] = tested on: bulrush; assay: as above; format: in vivo; conditions: 30 g ai/a granule, 30 days later
Method: as §7, §8

[8] = tested on: rice; assay: Treatment of soil under submerged condition, post-emergence (Test 5), injury; format: in vivo; conditions: 30 g ai/a granule, 30 days later
Method: as §7, §8

[9] = tested on: ALS (acetolactate syntase); assay: ALS enzyme assay (Test 1); format: biochemical, pea; conditions: 1,000 ppm (0.5 mg/0.5 ml)
Method: as §2, §3, §4, §5, §6

[10] = tested on: foxtail meadow; assay: Upland foliar application test (Test 3); format: in vivo; conditions: 30 g ai/a, foliar spray at 2-3 leaves, 30th day
Method: as §1

[11] = tested on: barnyardgrass; assay: Upland foliar application test (Test 3); format: in vivo; conditions: 30 g ai/a, foliar spray at 2-3 leaves, 30th day
Method: as §1

[12] = tested on: common lambsquarters; assay: Upland foliar application test (Test 3); format: in vivo; conditions: 30 g ai/a, foliar spray at 2-3 leaves, 30th day
Method: as §1

[13] = tested on: johnsongrass; assay: Upland foliar application test (Test 3); format: in vivo; conditions: 30 g ai/a, foliar spray at 2-3 leaves, 30th day
Method: as §1

[14] = tested on: large crabgrass; assay: Upland foliar application test (Test 3); format: in vivo; conditions: 30 g ai/a, foliar spray at 2-3 leaves, 30th day
Method: as §1

[15] = tested on: redroot pigweed; assay: Upland foliar application test (Test 3); format: in vivo; conditions: 30 g ai/a, foliar spray at 2-3 leaves, 30th day
Method: as §1

[16] = tested on: green foxtail; assay: Upland foliar application test (Test 3); format: in vivo; conditions: 30 g ai/a, foliar spray at 2-3 leaves, 30th day
Method: as §1

[17] = tested on: rice; assay: Treatment of soil under submerged condition, pre-emergence (Test 4), injury; format: in vivo; conditions: 30 g ai/a granule, 30 days later
Method: as §7, with “seroylnus” for “serroylnus”, “germinate” for “grow”, “One day later (before emergence of weeds),” for “When the barnyardgrass grew to two-leaf stage,”
In the table, the degrees of damages of the test plants and the degrees of injury of rice are shown in a similar manner to Example 2.

| SMILES | Inhibitory activity (%) Barnyardgrass [4] [%] | Inhibitory activity (%) Pea [9] [%] | Injury Soybean [1] | Injury Peanut [2] | Injury Cotton [3] | Herbicidal effects Sagittaria Pygmaea [5] | Herbicidal effects Barnyardgrass [6] | Herbicidal effects Bulrush [7] | Injury Rice [8] | Herbicidal effects Foxtail meadow [10] | Herbicidal effects Barnyardgrass [11] | Herbicidal effects Common lambsquarters [12] | Herbicidal effects Johnsongrass [13] | Herbicidal effects Large crabgrass [14] | Herbicidal effects Redroot pigweed [15] | Herbicidal effects Green foxtail [16] | Injury Rice [17] |
| --- | --- | --- | --- | --- | --- | --- | --- | --- | --- | --- | --- | --- | --- | --- | --- | --- | --- |
| COc1cc(OC)nc(Oc2ccccc2C=NOCc2cccc(C)c2)n1 [compound 20] | 58 | 0 | 0 (91-100 (No damages)) | 0 (91-100 (No damages)) | 0 (91-100 (No damages)) | 4 (6-10 (Severe damages)) | 5 (0-5 (Death)) | 4 (6-10 (Severe damages)) | 0 (91-100 (No damages)) | 5 (0-5 (Death)) | 5 (0-5 (Death)) | 4 (6-10 (Severe damages)) | 5 (0-5 (Death)) | 5 (0-5 (Death)) | 5 (0-5 (Death)) | 5 (0-5 (Death)) | 0 (91-100 (No damages)) |
| COc1cc(OC)nc(Oc2ccccc2C=NOCC=Cc2cccc(Cl)c2)n1 [Compound No. 26, 0-(3-chlorocinnamyl)-2-(4,6-dimethoxy-2-pyrimidinyloxy)benzaldxime] | 89 | 8 | 0 (91-100 (No damages)) | 0 (91-100 (No damages)) | 0 (91-100 (No damages)) | 4 (6-10 (Severe damages)) | 5 (0-5 (Death)) | 4 (6-10 (Severe damages)) | 0 (91-100 (No damages)) | 4 (6-10 (Severe damages)) | 5 (0-5 (Death)) | 4 (6-10 (Severe damages)) | 5 (0-5 (Death)) | 5 (0-5 (Death)) | 4 (6-10 (Severe damages)) | 5 (0-5 (Death)) | 0 (91-100 (No damages)) |

Continued, in another order:

| Inhibitory activity (%) Barnyardgrass [4] [%] | Inhibitory activity (%) Pea [9] [%] | SMILES | Injury Soybean [1] | Injury Peanut [2] | Injury Cotton [3] | Herbicidal effects Sagittaria Pygmaea [5] | Herbicidal effects Barnyardgrass [6] | Herbicidal effects Bulrush [7] | Injury Rice [8] | Herbicidal effects Foxtail meadow [10] | Herbicidal effects Barnyardgrass [11] | Herbicidal effects Common lambsquarters [12] | Herbicidal effects Johnsongrass [13] | Herbicidal effects Large crabgrass [14] | Herbicidal effects Redroot pigweed [15] | Herbicidal effects Green foxtail [16] | Injury Rice [17] |
| --- | --- | --- | --- | --- | --- | --- | --- | --- | --- | --- | --- | --- | --- | --- | --- | --- | --- |
| 59 | 0 | C=CCON=Cc1ccccc1Oc1nc(OC)cc(OC)n1 [Compound No. 4] | 0 (91-100 (No damages)) | 0 (91-100 (No damages)) | 0 (91-100 (No damages)) | 3 (11-40 (Medium damages)) | 5 (0-5 (Death)) | 4 (6-10 (Severe damages)) | 0 (91-100 (No damages)) | 5 (0-5 (Death)) | 5 (0-5 (Death)) | 3 (11-40 (Medium damages)) | 5 (0-5 (Death)) | 3 (11-40 (Medium damages)) | 4 (6-10 (Severe damages)) | 5 (0-5 (Death)) | 0 (91-100 (No damages)) |
| 64 | 0 | C=C(C)CON=Cc1ccccc1Oc1nc(OC)cc(OC)n1 [compound 5] | 0 (91-100 (No damages)) | 0 (91-100 (No damages)) | 0 (91-100 (No damages)) | 5 (0-5 (Death)) | 5 (0-5 (Death)) | 5 (0-5 (Death)) | 0 (91-100 (No damages)) | 5 (0-5 (Death)) | 5 (0-5 (Death)) | 4 (6-10 (Severe damages)) | 5 (0-5 (Death)) | 5 (0-5 (Death)) | 4 (6-10 (Severe damages)) | 5 (0-5 (Death)) | 0 (91-100 (No damages)) |
| 85 | 0 | C#CCON=Cc1ccccc1Oc1nc(OC)cc(OC)n1 [Compound No. 13, 0-(2-propynyl)-2-(4,6-dimethoxy-2-pyrimidinyloxy)benzaldoxime] | 0 (91-100 (No damages)) | 0 (91-100 (No damages)) | 0 (91-100 (No damages)) | 3 (11-40 (Medium damages)) | 5 (0-5 (Death)) | 4 (6-10 (Severe damages)) | 0 (91-100 (No damages)) | 5 (0-5 (Death)) | 5 (0-5 (Death)) | 4 (6-10 (Severe damages)) | 5 (0-5 (Death)) | 5 (0-5 (Death)) | 5 (0-5 (Death)) | 5 (0-5 (Death)) | 1 (71-90 (Slight damages)) |
